Experimental data taken from ChEMBL document CHEMBL1201862, “PubChem BioAssay data set” (2004).
The source made the active and inactive calls.

Legend:
[1] = P. falciparum Dd2 growth inhibitors, dose response, SYBR Green, cherry-picked samples (AID 1159567); format: functional, cell-based
Protein RecA = target: T1, Protein RecA (Mycobacterium tuberculosis, UniProt P9WHJ3); assay: Fluorescence Cell-Free Homogeneous Dose Retest to Identify Inhibitors of RecA-Intein Splicing Activity. [Related pubchem assays (depositor defined):AID2097, AID2223, AID489010, AID492950]; format: functional
T1 sequence (P9WHJ3 whole entry): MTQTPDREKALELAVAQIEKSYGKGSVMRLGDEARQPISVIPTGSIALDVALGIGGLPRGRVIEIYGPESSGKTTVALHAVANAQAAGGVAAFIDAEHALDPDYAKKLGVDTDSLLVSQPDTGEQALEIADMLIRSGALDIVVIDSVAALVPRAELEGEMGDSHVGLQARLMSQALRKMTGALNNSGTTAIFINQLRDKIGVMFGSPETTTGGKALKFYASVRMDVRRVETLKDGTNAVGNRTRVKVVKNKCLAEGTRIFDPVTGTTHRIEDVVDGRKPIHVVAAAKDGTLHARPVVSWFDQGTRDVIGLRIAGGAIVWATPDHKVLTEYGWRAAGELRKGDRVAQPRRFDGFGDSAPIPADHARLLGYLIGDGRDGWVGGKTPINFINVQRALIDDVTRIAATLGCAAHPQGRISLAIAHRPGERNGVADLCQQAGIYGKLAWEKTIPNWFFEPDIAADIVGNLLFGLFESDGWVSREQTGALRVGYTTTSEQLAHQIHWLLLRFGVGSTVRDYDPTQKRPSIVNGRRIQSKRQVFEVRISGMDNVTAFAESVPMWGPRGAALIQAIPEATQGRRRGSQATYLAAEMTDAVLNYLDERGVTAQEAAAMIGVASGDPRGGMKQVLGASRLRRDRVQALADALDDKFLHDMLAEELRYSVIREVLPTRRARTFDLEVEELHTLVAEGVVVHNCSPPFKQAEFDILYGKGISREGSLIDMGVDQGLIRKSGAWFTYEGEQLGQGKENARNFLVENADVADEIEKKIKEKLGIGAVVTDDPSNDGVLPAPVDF

HEK293 = assay: EBV LMP1 TES2 canonical NF-kB signalling blockers – cell-based, HEK293, luciferase, cherry-pick, dose response (AID 588343); format: functional; conditions: Homo sapiens
[2] = target: T2, Replicative DNA helicase DnaB (Mycobacterium tuberculosis, UniProt P9WMR3); assay: DnaB intein splicing inhibitors, dose response, biochemical, cell-free fluorescence (AID 449749); format: functional
T2 sequence (P9WMR3 whole entry): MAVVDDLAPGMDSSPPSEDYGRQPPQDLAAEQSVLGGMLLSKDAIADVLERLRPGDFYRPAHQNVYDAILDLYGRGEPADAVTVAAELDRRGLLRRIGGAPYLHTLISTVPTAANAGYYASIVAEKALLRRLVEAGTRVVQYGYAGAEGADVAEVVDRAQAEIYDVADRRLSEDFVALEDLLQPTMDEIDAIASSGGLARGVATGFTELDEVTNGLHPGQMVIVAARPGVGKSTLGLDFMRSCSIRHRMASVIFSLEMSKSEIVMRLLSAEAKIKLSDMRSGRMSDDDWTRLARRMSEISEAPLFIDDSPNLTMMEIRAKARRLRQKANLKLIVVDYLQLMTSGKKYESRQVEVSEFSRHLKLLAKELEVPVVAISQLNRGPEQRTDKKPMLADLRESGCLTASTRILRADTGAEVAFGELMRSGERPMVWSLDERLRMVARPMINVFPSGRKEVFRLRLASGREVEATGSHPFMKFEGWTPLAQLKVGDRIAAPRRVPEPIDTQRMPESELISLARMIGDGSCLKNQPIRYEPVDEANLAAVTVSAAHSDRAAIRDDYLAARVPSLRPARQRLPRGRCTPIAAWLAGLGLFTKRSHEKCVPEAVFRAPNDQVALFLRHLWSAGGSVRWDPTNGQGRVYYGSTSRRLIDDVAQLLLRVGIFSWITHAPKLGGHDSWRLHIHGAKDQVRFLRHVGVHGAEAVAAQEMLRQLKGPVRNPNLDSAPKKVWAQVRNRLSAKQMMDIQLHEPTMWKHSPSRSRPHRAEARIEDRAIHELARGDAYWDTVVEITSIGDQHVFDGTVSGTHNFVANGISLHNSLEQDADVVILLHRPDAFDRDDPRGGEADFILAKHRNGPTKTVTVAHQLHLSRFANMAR

[3] = target: T3, Calpain-2 catalytic subunit (Sus scrofa, UniProt P43367); assay: m-calpain protease blockers, concentration series – biochemical, fluorogenic peptide substrate, dose response (AID 1420); format: functional
T3 sequence (P43367 whole entry): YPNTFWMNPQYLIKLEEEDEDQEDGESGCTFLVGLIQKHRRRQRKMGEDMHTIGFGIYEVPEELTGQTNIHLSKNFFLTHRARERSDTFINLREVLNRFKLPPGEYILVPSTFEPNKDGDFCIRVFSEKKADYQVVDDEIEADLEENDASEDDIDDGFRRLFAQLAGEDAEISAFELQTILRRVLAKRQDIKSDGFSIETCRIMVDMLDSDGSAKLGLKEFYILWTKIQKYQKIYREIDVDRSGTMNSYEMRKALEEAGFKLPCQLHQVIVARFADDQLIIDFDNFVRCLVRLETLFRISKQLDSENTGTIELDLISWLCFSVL

[4] = blockers of HIV-1 envelope-mediated cell-cell fusion – cherry-pick, dose response (AID 652057); format: functional, cell-based
[5] = HIV-1 AD8 envelope cell-cell fusion blockers – cherry-pick, dose response (AID 652062); format: functional, cell-based;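 further: luciferase signal from cell-cell fusion driven by HIV-1 clade B AD8 Env; potency is for inhibitors of fusion seen as a drop in luminescence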
[6] = off-target signal loss in HeLa-CEM21 co-culture – HeLa F-luc CTL cells, cherry-picked, counter-screen for HIV-1 Env fusion inhibitor project, dose response (AID 652040); format: functional, cell-based;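 further: potency for signal decrease marking cytotoxic or nonspecific inhibition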
[7] = blockers of HIV-1 ZM109 envelope-driven cell-cell fusion – HeLa effector, CEM target cells, luciferase, cherry-pick, dose response (AID 652058); format: functional, cell-based;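 further: luciferase signal from HIV-1 Env mediated cell-cell fusion of effector and target cells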
[8] = target: T4, Endoribonuclease toxin MazF (Escherichia coli K-12, UniProt P0AE70); assay: activation of MazEF endoribonuclease cleavage – biochemical, fluorescence, single-stranded RNA substrate, uHTS hits, dose response (AID 588481); format: functional
T4 sequence (P0AE70 whole entry): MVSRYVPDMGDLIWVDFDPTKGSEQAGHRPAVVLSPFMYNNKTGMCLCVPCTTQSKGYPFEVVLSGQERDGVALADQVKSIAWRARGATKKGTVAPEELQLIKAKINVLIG

[9] = target: T4, Endoribonuclease toxin MazF; assay: substrate-only fluorescence increase artefacts – biochemical, single-stranded RNase substrate, counter-screen for MazEF activator project, dose response (AID 588502); format: functional
[10] = target: Eukaryotic translation initiation factor 4E (Mus musculus, UniProt P63073); assay: blockers of eIF4G binding by eIF4E – biochemical, TR-FRET, dose response (AID 855); format: functional;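 further: potency for disrupting eIF4E binding to eIF4GI seen as loss of FRET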
Chain of Eukaryotic translation initiation factor 4E (P63073 whole entry, the tested form may be a part): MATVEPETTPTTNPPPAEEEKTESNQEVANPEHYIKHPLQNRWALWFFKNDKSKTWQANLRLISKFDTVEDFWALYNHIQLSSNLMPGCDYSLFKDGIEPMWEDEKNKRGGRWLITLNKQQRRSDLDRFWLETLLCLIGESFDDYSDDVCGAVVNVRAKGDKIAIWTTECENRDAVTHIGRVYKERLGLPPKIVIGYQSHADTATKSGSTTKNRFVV

[11] = target: T5, RNA-binding protein pos-1 (Caenorhabditis elegans, UniProt G5EF15); assay: disruptors of C. elegans POS-1 RNA interaction – biochemical, fluorescence polarization, dose response (AID 1964);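 further: purified POS-1 fused to maltose binding protein made in E. coli; potency of compounds blocking POS-1 binding to fluorescent RNA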
T5 sequence (G5EF15 whole entry): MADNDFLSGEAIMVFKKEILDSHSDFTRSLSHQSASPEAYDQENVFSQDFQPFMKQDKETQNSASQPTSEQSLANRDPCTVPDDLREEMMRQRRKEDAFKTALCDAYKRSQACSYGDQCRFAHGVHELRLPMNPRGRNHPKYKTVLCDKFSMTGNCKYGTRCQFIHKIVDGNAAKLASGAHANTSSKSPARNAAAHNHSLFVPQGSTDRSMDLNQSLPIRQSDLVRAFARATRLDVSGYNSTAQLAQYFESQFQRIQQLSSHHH

[12] = target: T6, Zinc finger protein mex-5 (Caenorhabditis elegans, UniProt Q9XUB2); assay: potency of MEX-5 RNA-binding blockers – biochemical, C. elegans, fluorescence polarization, dose response (AID 1960)
T6 sequence (Q9XUB2 whole entry): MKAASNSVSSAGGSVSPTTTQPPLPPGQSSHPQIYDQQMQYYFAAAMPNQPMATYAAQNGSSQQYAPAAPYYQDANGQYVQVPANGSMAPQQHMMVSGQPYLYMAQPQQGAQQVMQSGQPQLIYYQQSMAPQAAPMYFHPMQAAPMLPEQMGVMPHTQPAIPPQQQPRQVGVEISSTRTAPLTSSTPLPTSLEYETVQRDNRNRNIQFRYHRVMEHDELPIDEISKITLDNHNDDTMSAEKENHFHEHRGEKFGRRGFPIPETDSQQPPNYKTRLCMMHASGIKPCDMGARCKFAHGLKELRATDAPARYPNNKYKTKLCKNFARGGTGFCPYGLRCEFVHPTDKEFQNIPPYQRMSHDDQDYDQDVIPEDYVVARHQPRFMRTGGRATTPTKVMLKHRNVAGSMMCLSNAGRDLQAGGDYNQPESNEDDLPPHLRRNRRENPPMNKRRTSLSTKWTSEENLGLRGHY

[13] = blockers of bursicon-stimulated LGR2 cAMP reporter – cell-based, HEK293, CRE-luciferase reporter, cherry pick, set 2, dose response (AID 743343); format: functional;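 further: transfected cells were stimulated with diluted bursicon conditioned medium after compound addition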
[14] = toxicity toward HepG2 liver cells – cell-based, plate reader, cherry-pick, antagonist series, cytotoxicity control, dose response (AID 743416); format: functional
[15] = A549 cell cytotoxicity, dose response, cytotoxicity control, plate reader, cherry-pick, antagonist series (AID 743412); format: functional, cell-based
[16] = blockade of melanocortin 4 receptor signaling – cell-based, plate reader, cherry pick, counter-screen for LGR2 antagonist project, dose response (AID 743444); format: functional;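 further: transfected HEK 293 cells stimulated with alpha-MSH peptide; potency of inhibitors of the alpha-MSH evoked signal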
Cytochrome P450 1A2 = target: T7, Cytochrome P450 1A2 (Homo sapiens, UniProt P05177);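 further: PubChem cytochrome P450 panel assay, CYP1A2 panel member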
T7 sequence (P05177 whole entry): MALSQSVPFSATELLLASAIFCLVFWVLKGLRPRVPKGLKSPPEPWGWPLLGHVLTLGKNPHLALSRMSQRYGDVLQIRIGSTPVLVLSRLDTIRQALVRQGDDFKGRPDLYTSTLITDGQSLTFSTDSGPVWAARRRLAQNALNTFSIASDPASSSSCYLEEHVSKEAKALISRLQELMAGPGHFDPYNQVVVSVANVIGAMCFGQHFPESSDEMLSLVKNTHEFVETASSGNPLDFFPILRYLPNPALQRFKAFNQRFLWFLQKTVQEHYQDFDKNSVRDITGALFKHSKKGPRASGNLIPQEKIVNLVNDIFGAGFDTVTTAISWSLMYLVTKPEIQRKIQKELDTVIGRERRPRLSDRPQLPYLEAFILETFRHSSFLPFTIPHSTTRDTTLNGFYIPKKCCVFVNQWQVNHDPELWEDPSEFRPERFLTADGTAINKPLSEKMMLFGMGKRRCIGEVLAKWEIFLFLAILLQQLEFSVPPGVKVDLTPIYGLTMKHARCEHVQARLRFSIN

With COc1cccc(-c2cn(CC[C@@H]3CC[C@@H](NS(=O)(=O)c4ccccc4Cl)[C@H](CO)O3)nn2)c1 the AC50 [1] was 5.86 µM (active).

With COc1cc(/C=C2/SC(=S)N(Cc3ccccc3)C2=O)ccc1OCC(=O)O the EC50 (Protein RecA) was 6.85 µM (active), the AC50 (HEK293) was 45.2 µM (active) and the AC50 [2] was 4.22 µM (active).

For Cc1c(=O)n(OCc2ccccc2F)c2ccccc2[n+]1[O-], the IC50 [3] was 25.6 µM (not active).

For CCN(Cc1nc(O)c2ccc(Cl)cc2n1)C(=O)c1cc(C2CC2)nn1-c1ccccc1, the AC50 [4] was 2.67 µM (active), the AC50 [5] was 4.62 µM (active) and the AC50 [6] was 6.32 µM (active). For the same molecule, the AC50 [7] was 5.14 µM (active).

With NNS(=O)(=O)c1ccc(Sc2ccccn2)c([N+](=O)[O-])c1 the EC50 [8] was 52.6 µM (inactive) and the EC50 [9] was > 99 µM (inactive).

In the case of CCOC(=O)Cn1c(=O)oc2cc(S(=O)(=O)NCc3cccs3)ccc21, the IC50 [10] is reported as > 64 µM (inactive).

In the case of C[C@H]1CN([C@@H](C)CO)S(=O)(=O)c2ccc(Br)cc2O[C@H]1CN(C)Cc1ccc(F)cc1, the AC50 [4] is reported as 3.67 µM (active), the AC50 [5] is reported as 30.9 µM (active) and the AC50 [7] is reported as 5.86 µM (active).

For Cc1cc(C)cc(NC(=O)c2ccccc2CC[N+](=O)[O-])c1, the IC50 [10] was > 64 µM (inactive).

In the case of COc1ccc2c(c1)S/C(=C\C(=O)c1ccncc1)N2C, the EC50 [8] is reported as > 99 µM (inactive), the EC50 [11] is reported as > 300 µM (not active) and the EC50 [9] is reported as > 99 µM (inactive). For the same molecule, the EC50 [12] was > 300 µM (not active).

In the case of Cc1ccoc1C(=O)Nc1ccc2ccccc2c1, the AC50 [13] is reported as 7.48 µM (active), the AC50 [14] is reported as 40 µM (active) and the AC50 [15] is reported as > 52 µM (inactive). For the same molecule, the AC50 [16] was 9.34 µM (active).

For O=C(NC1CCCCC1)C(c1cccs1)N(Cc1cccs1)C(=O)c1ccco1 (centres undefined), the AC50 [4] was 6.72 µM (active), the AC50 [5] was 1.55 µM (active) and the AC50 (Cytochrome P450 1A2) was 20 µM (inconclusive). For the same molecule, the AC50 [6] was 48.2 µM (active) and the AC50 [7] was 5.68 µM (active).
